7 molecules from patent publication US9283234B2, “Compositions and methods for suppressing endometrial proliferation” (REPROS THERAPEUTICS INC., priority 2006, dated 2016) can be followed below.

In assay [1] the target is T1, glucocorticoid receptor (rbGR) (Oryctolagus cuniculus, UniProt P59667).
T1 construct: cytosol containing PR or GR were prepared in TEGMD buffer; from tissue; host or cells: thymus of estradiol-primed immature rabbits (cytosol)
T1 sequence (P59667 1-772): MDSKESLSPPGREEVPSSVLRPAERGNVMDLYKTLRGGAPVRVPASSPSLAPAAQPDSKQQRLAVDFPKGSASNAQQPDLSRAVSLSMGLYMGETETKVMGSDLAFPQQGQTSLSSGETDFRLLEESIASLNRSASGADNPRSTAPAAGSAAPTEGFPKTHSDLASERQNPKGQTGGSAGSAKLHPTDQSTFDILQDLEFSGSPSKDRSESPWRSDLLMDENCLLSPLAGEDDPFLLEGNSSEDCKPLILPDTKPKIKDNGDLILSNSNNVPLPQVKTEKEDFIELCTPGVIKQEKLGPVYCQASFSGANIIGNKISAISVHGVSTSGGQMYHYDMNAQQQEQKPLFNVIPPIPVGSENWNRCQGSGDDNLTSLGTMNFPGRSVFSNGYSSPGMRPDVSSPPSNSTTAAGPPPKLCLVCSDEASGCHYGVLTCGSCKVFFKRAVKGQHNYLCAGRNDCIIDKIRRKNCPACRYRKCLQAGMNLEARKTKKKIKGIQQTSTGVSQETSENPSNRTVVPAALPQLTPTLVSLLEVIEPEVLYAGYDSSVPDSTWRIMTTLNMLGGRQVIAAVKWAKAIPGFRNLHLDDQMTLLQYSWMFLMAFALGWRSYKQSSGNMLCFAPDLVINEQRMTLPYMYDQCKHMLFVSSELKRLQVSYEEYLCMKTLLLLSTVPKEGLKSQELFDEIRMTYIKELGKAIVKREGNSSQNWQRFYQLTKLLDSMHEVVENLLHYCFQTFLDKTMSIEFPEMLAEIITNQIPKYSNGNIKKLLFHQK
Description: glucocorticoid receptor binding. More on the design: species or system rabbit. As for the experimental part:
Certain antiprogestins were tested in receptor-binding assays for their ability to bind rabbit progesterone receptor (rbPR) and glucocorticoid receptor (rbGR). […] For PR binding, the cytosol was incubated with 6 nM 1,2-[^3H]progesterone (50.0 Ci/mmole) and competitors were added at concentrations from 2 to 100 nM. For binding to GR, the cytosol was incubated with 6 nM 6,7-[^3H]-dexamethasone (40 Ci/mmol) and test compounds were added at concentrations from 20 to 100 nM. After overnight incubation at 4 C, bound and unbound [^3H] steroids were separated by addition of dextran-coated charcoal and centrifugation at 2100×g for 15 min at 4 C. Supernatants containing the [^3H]-steroid receptor complexes were decanted into vials containing 4 ml OPTIFLUOR scintillation fluid (Packard Instrument Co.), vortexed, equilibrated in a liquid scintillation counter for 30 minutes and then counted for 2 minutes. […] The standards for the PR and GR assays were unlabeled progesterone and dexamethasone, respectively.

A short description of assay [2]: Measuring serum corticosterone in rats. Conditions: progesterone, CDB-4124 and RU-486 groups compared.
The test system of assay [3] is rabbit progesterone receptor (rbPR) and glucocorticoid receptor (rbGR). Nature of the assay: Receptor-binding assays, ratio of relative binding affinities rbPR/rbGR. Conditions: ratio of relative binding affinities (RBA = EC50 of standard/EC50 of test compound x100) for rbPR and rbGR; standards progesterone, dexamethasone. The method, then:
Certain antiprogestins were tested in receptor-binding assays for their ability to bind rabbit progesterone receptor (rbPR) and glucocorticoid receptor (rbGR). Briefly, cytosol containing PR or GR were prepared in TEGMD buffer (10 mM Tris, pH 7.2, 1.5 mM EDTA, 0.2 mM sodium molybdate, 10% glycerol, 1 mM DTT) from uterus or thymus, respectively, of estradiol-primed immature rabbits. For PR binding, the cytosol was incubated with 6 nM 1,2-[^3H]progesterone (50.0 Ci/mmole) and competitors were added at concentrations from 2 to 100 nM. For binding to GR, the cytosol was incubated with 6 nM 6,7-[^3H]-dexamethasone (40 Ci/mmol) and test compounds were added at concentrations from 20 to 100 nM. After overnight incubation at 4 C, bound and unbound [^3H] steroids were separated by addition of dextran-coated charcoal and centrifugation at 2100×g for 15 min at 4 C. Supernatants containing the [^3H]-steroid receptor complexes were decanted into vials containing 4 ml OPTIFLUOR scintillation fluid (Packard Instrument Co.), vortexed, equilibrated in a liquid scintillation counter for 30 minutes and then counted for 2 minutes. The EC50 (Effective Concentration) for each standard curve and each of the compound curves was determined by entering the counting data into a four parameter sigmoidal computer program ([…] Immunoassay Data Reduction Program, Packard Instrument Co., Meriden, Conn.). Relative binding affinity (RBA) for each compound was calculated using the following equation: EC50 of standard/EC50 of test compound×100. The standards for the PR and GR assays were unlabeled progesterone and dexamethasone, respectively. The results of these experiments are summarized in Table 1, as a ratio of the relative binding affinities of each compound for the rbPR and rbGR receptors (rbPR/rbGR).

Another assay relates to rabbit uterus. Nature of the assay: anti-McGinty and anti-Clauberg assays. The conditions noted are these: average of anti-McGinty and anti-Clauberg results relative to CDB-2914 (=1.00). In kind it is in vivo. The source says:
Also given in Table 1 are the relative biological activities of the same compounds in the rabbit uterus by the anti-McGinty and anti-Clauberg assays. Compound CDB-2914 (listed at the end of the Table) was used as the control or reference compound (rabbit Biological Activity=1.00) for these experiments because results of experiments using CDB-2914 have been published before (Hild-Petito et al., 1996; Passaro et al., 1997; Reel et al., 1998; Larner et al., 2000). For the anti-McGinty test, immature female rabbits received a subcutaneous injection of 5 μg estradiol in 10% ethanol/sesame oil daily for 6 consecutive days. On day 7, animals underwent sterile abdominal surgery to ligate a 3-4 cm segment of both uterine horns. The test compound in appropriate solvent was injected intraluminally into the ligated segment of one uterine horn and vehicle alone into the other. A stimulating dose of progesterone (267 μg/day) was administered subcutaneously to each rabbit daily for the next three days to induce endometrial proliferation. All animals were sacrificed at day 10 for removal of the uterus where a segment central to the ligatures was removed and fixed in 10% neutral buffered formalin and submitted for histological processing. Five micron sections stained with hematoxylin and cosin were evaluated microscopically for the degree of endometrial glandular proliferation. The percent inhibition of endometrial proliferation for each rabbit was calculated and the mean of the group of five animals recorded. For the Anti-Clauberg test, immature female rabbits received a subcutaneous injection of 5 μg estradiol in 10% ethanol/sesame oil daily for 6 consecutive days. On day 7, animals received progesterone by subcutaneous injection (160 μg/day) and the experimental compound in appropriate vehicle orally or subcutaneously for five consecutive days. One group of rabbits received progesterone only. […] Five micron sections stained with hematoxylin and eosin were evaluated microscopically for the degree of endometrial glandular proliferation. […]

The nature of assay [4]: Measuring serum cortisol in rats. The format is in vivo. The conditions noted are these: 10 mg/kg, 21 days of chronic dosing, FIG. 1.
Assay [5] is described as follows: estrogenic, androgenic, anti-estrogenic and anti-androgenic activities. From the text:
These methods include receptor binding and in vivo bioassays such as anti-McGinty, anti-Clauberg, glucocorticoid, estrogenic, androgenic, anti-glucocorticoid (AG), anti-estrogen, and anti-androgen activities as well as post-coital and anti-ovulatory activities where in the leading compounds of the instant invention are used as a reference.

Assay [6] has as its system pain associated with endometriosis. Nature of the assay: Six month endometriosis study: pain diaries and symptom surveys. The format is in vivo, pre-menopausal adult women. More on the design: key to score for intensity of pain on a bad day: 0-10 scale; 0 = no pain, 10 = extreme pain. The method, then:
Pain reduction also occurred more rapidly than with the active control, LUCRIN. The response of pain to treatment in this study was analyzed in two ways. Patients in the study maintained daily pain diaries to record the severity and frequency of pain. In addition, at each office visit, patients filled out endometriosis symptom surveys that included a questionnaire that evaluated intensity of pain on a bad day on a scale of 0-10 with 10 being the greatest intensity. […] There appeared to be a dose dependent effect on pain reduction. […] This decrease in duration of pain was statistically better (p=0.0012) than the 117.8 (74%; standard deviation 51.4 days) pain free days achieved with LUCRIN. […] Patients on CDB-4124 12.5 mg and 25 mg doses had 115.9 (66%; standard deviation 69.2 days) and 133.6 (75%; standard deviation 27.4 days) pain free days, respectively. […] The 25 mg and 12.5 mg doses of CDB-4124 were not statistically different from LUCRIN. […] The intensity of pain was asked by the question: “On a scale of 1-10, with 0 being no pain and 10 being extreme pain, how intense was your pain on a bad day?” The mean scores for intensity of pain at baseline were 6.3 for the CDB-4124 groups and 6.1 for the LUCRIN group. […] At month three all four active treatment groups had statistically significant reduction in pain compared with baseline, with the following scores: 3.7 (p=0.03) for 12.5 mg CDB-4124, 3.2 (p=0.03) for 25 mg CDB-4124, 1.6 (p=0.015) for 50 mg CDB-4124 and 1.5 (p=0.016) for LUCRIN. These dose related reductions continued until month six when the values for pain intensity were 2.0 (p=0.008), 2.8 (p=0.023), 0.6 (p=0.004) and 0.7 (p=0.016), respectively. Two months after stopping treatment pain returned and was of similar intensity in all four treatment groups.

The next assay relates to endometrium. Description: Six month endometriosis study: endometrial thickness (ultrasound) / endometrial proliferation. The format is in vivo, pre-menopausal adult women. The conditions noted are these: LUPRON once per month. The source says:
Comparisons were made to both baseline and visit one ultrasound measurements of endometrial thickness. […]

Turning to `CC(=O)O[C@]1(C(C)=O)CC[C@H]2[C@@H]3CCC4=CC(=O)CCC4=C3[C@@H](c3ccc(N(C)C)cc3)C[C@@]21C` [CDB-2914, 17α-acetoxy-11β-(4-N,N-dimethylaminophenyl)-19-norpregna-4,9-dien-3,20-dione], the “anti-glucocorticoid receptor activity / glucocorticoid receptor binding” value in assay [1] is reported as “moderately active in glucocorticoid receptor binding”.

Consider `CC(=O)[C@H]1CC[C@H]2[C@@H]3CCC4=CC(=O)CC[C@]4(C)[C@H]3CC[C@]12C` [progesterone, reference compound], for which, in assay [2], the “differences in serum corticosterone between treatment groups” value was “No differences in serum corticosterone”.

As for `COCC(=O)[C@@]1(OC(C)=O)CCC2C3CCC4=CC(=NO)CCC4=C3C(c3ccc(N(C)C)cc3)C[C@@]21C` (stereo partly drawn) [CDB-4205, 3-hydroxyamino-2′-methoxy-17α-acetoxy-11β-(4 N,N-dimethylaminophenyl)-19-norpregna-4,9-diene-3,20-dione], the rbPR/rbGR in assay [3] amounted to 1.99. Also, the “rabbit Biol. Act.” value with rabbit uterus was 1.00.

Turning to `CC(=O)OCC(=O)[C@@]1(OC(C)=O)CCC2C3CCC4=CC(=NO)CCC4=C3C(c3ccc(N(C)C)cc3)C[C@@]21C` (stereo partly drawn) [CDB-4206, 3-hydroxyamino-2′-acetoxy-17α-acetoxy-11β-(4 N,N-dimethylaminophenyl)-19-norpregna-4,9-diene-3,20-dione], the rbPR/rbGR in assay [3] was 1.44. For the same molecule, in the assay with rabbit uterus, the “rabbit Biol. Act.” value came out at 0.68.

Regarding `CC(=O)OCC(=O)[C@@]1(OC(C)=O)CCC2C3CCC4=CC(=O)CCC4=C3C(c3ccc(N(C)C)cc3)C[C@@]21C` (stereo partly drawn) [CDB-4059, 21-acetoxy-17α-acetoxy-1,3-(4 N,N-dimethylaminophenyl)-19-norpregna-4,9-diene-3,20-dione], in assay [4], the “serum cortisol versus control group” value is recorded as “significantly higher levels of serum cortisol”. Also, the “estrogenic, androgenic, anti-estrogenic, and anti-androgenic activities” value in assay [5] is reported as “lack”.

For `CCNC(=O)[C@@H]1CCCN1C(=O)[C@H](CCCNC(=N)N)NC(=O)[C@H](CC(C)C)NC(=O)[C@@H](CC(C)C)NC(=O)[C@H](Cc1ccc(O)cc1)NC(=O)[C@H](CO)NC(=O)[C@H](Cc1c[nH]c2ccccc12)NC(=O)[C@H](Cc1c[nH]cn1)NC(=O)[C@@H]1CCC(=O)N1` [LUPRON, leuprolide acetate, reference compound], in assay [6] (LUCRIN once per month), the “percent pain free days over the 180 day treatment period” value came to 74%. For the same molecule, in assay [6] (all doses, on average), the “distress related to pain over the six month exposure” value is on record as “reduced distress related to pain”. Also, in assay [6] (baseline, scale 0-10), the “mean score for intensity of pain on a bad day” value is 6.1. Moreover, the “score for intensity of pain on a bad day” value in assay [6] (month six, LUCRIN once per month) was 0.7; in assay [6] (month three, LUCRIN once per month), 1.5. Moreover, the “Endometrium (mm) 1st dose” value in the assay with endometrium (1st dose) amounted to 7.5 mm. The “Endometrium (mm) 3 months” value in the assay with endometrium (3 months) is 2.75 mm. In the assay on endometrium (screening), the “Endometrium (mm) screening” value stood at 7.9 mm.

Turning to `CCOCC(=O)[C@@]1(OC(C)=O)CCC2C3CCC4=CC(=NO)CCC4=C3C(c3ccc(N(C)C)cc3)C[C@@]21C` (stereo partly drawn) [CDB-4226, 3-hydroxyamino-21-ethyloxy-17α-acetoxy-11β-(4 N,N-dimethylaminophenyl)-19-norpregna-4,9-diene-3,20-dione], in assay [3], the rbPR/rbGR is 1.51. Besides, the “rabbit Biol. Act.” value with rabbit uterus came out at 0.54.
